# Laboratory results taken from patent US20220160703A1, “TUMOR-SELECTIVE COMBINATION THERAPY” (The Board of Regents of The University of Texas System, priority 2019, published 2022).
# Test system: tumor specific T cells
# Experiment: IFNγ ELISPOT / CBA tumor-specific T cell response
# Type: in vivo, mice
# Method: FIGS. 3A-E. Batf3-dependent dendritic cell-mediated T cell cross-priming is required for the antitumor effect of β-lap. […] IFNγ producing cells were determined by ELISPOT assay. […] (FIG. 3D) MC38 cells were subcutaneously transplanted into C57BL/6 WT (n=5/group) and Batf3^-/- mice (n=5/group for Batf3^-/- vehicle; n=6/group for Batf3^-/- β-lap), respectively. Tumor bearing mice were treated with β-lap (0.3 mg, i.t.) every other day for four times. Tumor growth was monitored twice a week. (FIG. 3E) MC38-OVA bearing mice (n=3/group) were treated with β-lap (0.3 mg, i.t.) for one time, and 4 days later, CD11c^+ dendritic cells were purified from the tumor drain lymph node, and cocultured with CD8 T cells isolated from the spleen of OT-1 transgenic mice. The activity of cross-priming of T cells was determined by the level of cell-secreted IFNγ via Cytometric Bead Array (CBA) mouse IFNγ assay. Data are shown as mean±SEM from three independent experiments. **P<0.01, ***P<0.001, ****P<0.0001 determined by unpaired student t-test (FIGS. 3A, 3B and 3E) or two-way ANOVA (FIGS. 3C and 3D). FIGS. 4A-F. Type I IFNs and TLR4/MyD88/signaling is required for the antitumor effect of β-lap and tumor specific CTLs. (FIG. 4A) MC38 tumor bearing C57BL/6 mice (n=5/group) were treated with β-lap (0.3 mg, i.t.) every other day for four times. Anti-IFNAR blocking antibodies (150 μg, i.t.) were administrated every four days for three times during the treatment. (FIG. 4B) The MC38 tumor bearing WT (n=5/group) and […]=4/group) C57BL/6 mice were treated with β-lap (0.3 mg, i.t.) every other day for four times. (FIG. 4C) MC38 tumor bearing WT (n=5/group) and Myd88^-/- (n=3/group) C57BL/6 mice were treated with β-lap (0.3 mg, i.t.) every other day for four times. (FIG. 4D) MC38 tumor bearing WT (n=5/group) and Tlr4^-/- (n=4/group) C57BL/6 mice were treated with β-lap (0.3 mg, i.t.) every other day for four times). (FIG. 4E) MC38 tumor bearing C57BL/6 mice (n=5/group) were treated with β-lap (0.3 mg, i.t.) every other day for four times. Anti-HMGB1 neutralized antibodies (200 μg, i.p) were administrated every three days for three times during the treatment. Tumor growth was monitored twice a week. (FIG. 4F) MC38 tumor bearing WT (n=4/group) or Tlr4^-/- (n=4/group) or MyD88-/- (n=6/group) C57BL/6 mice were treated with β-lap (0.3 mg, i.t.) every other day for four times. Anti-HMGB1 neutralized antibodies (200 μg, i.p) were administrated every three days for three times during the treatment. 12 days after the initial treatment, lymphocytes from the TdLN were isolated and stimulated with MC38 tumor cells irradiated with 60 Gy. IFNγ producing cells were determined by ELISPOTs assay. Data are shown as mean±SEM from two to three independent experiments. *P<0.05, **P<0.01, ***P<0.001, ****P<0.0001 determined by two-way ANOVA. […] (FIG. 6A) Treatment schema for local β-lap treatment based combinative therapy in FIG. 6B and FIG. 6C. (FIGS. 6B-C) MC38 tumor cells were s.c. inoculated into the flank of C57BL/6 mice (n=5/group). […] Tumor growth was monitored twice a week, and numbers of tumor free mice after treatment were shown. […] Tumor growth was monitored twice a week, and numbers of tumor free mice after treatment were shown. […] 12 days after first treatment, tumor infiltrating CD45^+ cells and lymphocytes were analyzed by flow cytometry (FIG. 6G), and OT-1 antigen specific T cells in the spleen were determined by IFNγ ELISPOT assay (FIG. 6H). […]
structure (smiles),measurement,setting,value
"CC1(C)CCC2=C(O1)c1ccccc1C(=O)C2=O [β-lap, β-lapachone]",IFNγ-producing T cells,"MC38, splenocytes 10 days after first β-lap, irradiated tumor cells",dramatically increased
same,OT1 antigen specific T cells in tumor tissues and spleen,"MC38-OVA, 12 days after initial treatment",neither β-lap or anti-PD-L1 monotherapy increased
same,numbers of OTI specific T cells in spleen,"MC38-OVA, OTI peptide stimulation",much higher
same,IFNγ production by OTI T cells primed by TdLN DCs,"MC38-OVA, β-lap 0.3 mg i.t. once, DCs 4 days later, CBA",more IFNγ production
same,tumor-reactive T cells in TdLN,"WT mice, MC38, 12 days after initial treatment",increased the number of tumor-reactive T cells
